Values quoted from earlier work in patent US11167084B2, “Control device for controlling the administration of propofol to a patient” (Fresenius Vial SAS, priority 2016, dated 2021).
Converted amounts (≈) assume the structure as drawn.

Details: Hill equation relating effect-site concentration to BIS; Emax=E0=100, y=2; FIG. 1 from T. A. Lim, Br J Anaesth 2006

CC(C)c1cccc(C(C)C)c1O [propofol]
EC50 (propofol effective concentration 50, effect-site): 4.14 µg/mL (≈ 23.2 µM)
